In brackets after ≈: the same amount, converted by molar mass.
Columns and labels:
Escherichia coli [1] = experiment: Antimicrobial activity against Escherichia coli DH5alpha carrying empty pBC-SK after 18 hrs by microdilution broth method; type: functional; settings: DH5[alpha]
Pseudomonas aeruginosa [2] = experiment: Ratio of Kcat to Km for Pseudomonas aeruginosa strain PS 297 metallo-beta-lactamase IMP-1 expressed in Escherichia coli BL21(DE3) assessed as substrate hydrolysis using 100 uM nitrocefin
Escherichia coli [3] = experiment: Antimicrobial activity against Escherichia coli DH5alpha carrying Pseudomonas aeruginosa strain PS 297 IMP-1-pLBII after 18 hrs by microdilution broth method; type: functional; settings: DH5[alpha]
Pseudomonas aeruginosa [4] = experiment: Activity of Pseudomonas aeruginosa strain PS 297 metallo-beta-lactamase IMP-1 expressed in Escherichia coli BL21(DE3) assessed as substrate hydrolysis using 100 uM nitrocefin
Pseudomonas aeruginosa [5] = experiment: Ratio of Kcat to Km for Pseudomonas aeruginosa strain PS 297 metallo-beta-lactamase IMP18 expressed in Escherichia coli BL21(DE3) assessed as substrate hydrolysis using 100 uM nitrocefin
Escherichia coli [6] = experiment: Antimicrobial activity against Escherichia coli DH5alpha carrying Pseudomonas aeruginosa strain PS 297 IMP-18-pLBII after 18 hrs by microdilution broth method; type: functional; settings: DH5[alpha]
Pseudomonas aeruginosa [7] = experiment: Activity of Pseudomonas aeruginosa strain PS 297 metallo-beta-lactamase IMP-18 expressed in Escherichia coli BL21(DE3) assessed as substrate hydrolysis using 100 uM nitrocefin

Compound | MIC (Escherichia coli [1]) [µg/mL] | kcat/Km (Pseudomonas aeruginosa [2]) | MIC (Escherichia coli [3]) [µg/mL] | Km (Pseudomonas aeruginosa [4]) [µM] | kcat (Pseudomonas aeruginosa [4]) [s⁻¹] | kcat/Km (Pseudomonas aeruginosa [5]) | MIC (Escherichia coli [6]) [µg/mL] | Km (Pseudomonas aeruginosa [7]) [µM] | kcat (Pseudomonas aeruginosa [7]) [s⁻¹]
C[C@@H](O)[C@H]1C(=O)N2C(C(=O)O)=C(S[C@@H]3CN[C@H](C(=O)Nc4cccc(C(=O)O)c4)C3)[C@H](C)[C@H]12 | ≤ 0.015 | 7.6 ×10⁵ /M/s | 2 (≈ 4.21 µM) | 21 | 16 | 1.2 ×10⁴ /M/s | 0.12 (≈ 0.252 µM) | 2.6 | 0.03
CO/N=C(\C(=O)N[C@@H]1C(=O)N2C(C(=O)[O-])=C(C[N+]3(C)CCCC3)CS[C@H]12)c1csc(N)n1 | 0.25 (≈ 0.52 µM) | 6.6 ×10⁵ /M/s | 4 (≈ 8.32 µM) | 11 | 7 | 4.4 ×10⁵ /M/s | – | 0.8 | 0.35
CC1(C)S[C@@H]2[C@H](NC(=O)Cc3ccccc3)C(=O)N2[C@H]1C(=O)O | – | 6.2 ×10⁵ /M/s | – | 520 | 320 | 6.2 ×10⁵ /M/s | – | 90 | 54
O=C(Cc1cccs1)N[C@@H]1C(=O)N2C(C(=O)O)=C(/C=C/c3ccc([N+](=O)[O-])cc3[N+](=O)[O-])CS[C@H]12 | – | 2.3 ×10⁶ /M/s | – | 27 | 63 | 6.1 ×10⁶ /M/s | – | 9 | 55
CC1(C)S[C@@H]2[C@H](NC(=O)[C@H](N)c3ccccc3)C(=O)N2[C@H]1C(=O)O [AMPICILLIN] | 4 (≈ 11.4 µM) | 4.8 ×10⁶ /M/s | 256 (≈ 733 µM) | 200 | 950 | 6.3 ×10⁵ /M/s | 64 (≈ 183 µM) | 103 | 65
C[C@H]1[C@H](NC(=O)/C(=N\OC(C)(C)C(=O)O)c2csc(N)n2)C(=O)N1S(=O)(=O)O [AZTREONAM] | – | – | – | > 1000 | < 0.01 | – | – | > 1000 | < 0.01
CO/N=C(\C(=O)N[C@@H]1C(=O)N2C(C(=O)O)=C(COC(C)=O)CS[C@H]12)c1csc(N)n1 [CEFOTAXIME] | 0.25 (≈ 0.549 µM) | 3.5 ×10⁵ /M/s | 8 (≈ 17.6 µM) | 4 | 1.3 | 2.3 ×10⁵ /M/s | 32 (≈ 70.3 µM) | 3 | 0.7
CO[C@@]1(NC(=O)C2SC(=C(C(N)=O)C(=O)O)S2)C(=O)N2C(C(=O)O)=C(CSc3nnnn3C)CS[C@@H]21 (stereo partly specified) [CEFOTETAN] | 0.25 (≈ 0.434 µM) | – | > 32 | – | – | – | 32 (≈ 55.6 µM) | – | –
CO[C@@]1(NC(=O)Cc2cccs2)C(=O)N2C(C(=O)O)=C(COC(N)=O)CS[C@@H]21 [CEFOXITIN] | 4 (≈ 9.36 µM) | – | > 256 | – | – | – | 256 (≈ 599 µM) | – | –
CC(C)(O/N=C(\C(=O)N[C@@H]1C(=O)N2C(C(=O)[O-])=C(C[n+]3ccccc3)CS[C@H]12)c1csc(N)n1)C(=O)O [CEFTAZIDIME] | 0.25 (≈ 0.457 µM) | 1.8 ×10⁵ /M/s | 32 (≈ 58.5 µM) | 44 | 8 | 7.7 ×10⁵ /M/s | 32 (≈ 58.5 µM) | 1.3 | 1
CO/N=C(\C(=O)N[C@@H]1C(=O)N2C(C(=O)O)=C(CSc3nc(=O)c(O)nn3C)CS[C@H]12)c1csc(N)n1 [CEFTRIAXONE] | 0.25 (≈ 0.451 µM) | – | 8 (≈ 14.4 µM) | – | – | – | 4 (≈ 7.21 µM) | – | –
CO/N=C(\C(=O)N[C@@H]1C(=O)N2C(C(=O)O)=C(COC(N)=O)CS[C@H]12)c1ccco1 [CEFUROXIME] | 4 (≈ 9.43 µM) | – | 128 (≈ 302 µM) | – | – | 1.3 ×10⁵ /M/s | 64 (≈ 151 µM) | 7 | 0.9
CC(=O)OCC1=C(C(=O)O)N2C(=O)[C@@H](NC(=O)Cc3cccs3)[C@H]2SC1 [CEPHALOTHIN] | 4 (≈ 10.1 µM) | 2.4 ×10⁶ /M/s | 256 (≈ 646 µM) | 21 | – | 4 ×10⁶ /M/s | 32 (≈ 80.7 µM) | 0.1 | 0.4
C[C@@H](O)[C@H]1C(=O)N2C(C(=O)O)=C(SCCNC=N)C[C@H]12 [IMIPENEM ANHYDROUS] | – | 1.2 ×10⁶ /M/s | 2 (≈ 6.68 µM) | 39 | 46 | 2.4 ×10⁶ /M/s | – | 7 | 17
C[C@@H](O)[C@H]1C(=O)N2C(C(=O)O)=C(S[C@@H]3CN[C@H](C(=O)N(C)C)C3)[C@H](C)[C@H]12 [MEROPENEM] | ≤ 0.015 | 5 ×10⁵ /M/s | 2 (≈ 5.22 µM) | – | – | 6 ×10³ /M/s | 0.06 (≈ 0.156 µM) | 8.4 | 0.05
CCN1CCN(C(=O)N[C@@H](C(=O)N[C@@H]2C(=O)N3[C@@H]2SC(C)(C)[C@@H]3C(=O)O)c2ccccc2)C(=O)C1=O [PIPERACILLIN] | 1 (≈ 1.93 µM) | 7.2 ×10⁵ /M/s | 1 (≈ 1.93 µM) | – | – | 5.1 ×10⁴ /M/s | 1 (≈ 1.93 µM) | > 200 | > 10
CO[C@@]1(NC(=O)C(C(=O)O)c2ccsc2)C(=O)N2[C@@H](C(=O)O)C(C)(C)S[C@@H]21 (stereo partly specified) [TEMOCILLIN] | 16 (≈ 38.6 µM) | < 100 M⁻¹ s⁻¹ | 32 (≈ 77.2 µM) | > 2000 | – | 7.5 ×10² /M/s | 16 (≈ 38.6 µM) | > 1000 | > 0.75
CC1(C)S[C@@H]2[C@H](NC(=O)[C@H](C(=O)O)c3ccsc3)C(=O)N2[C@H]1C(=O)O [TICARCILLIN] | 8 (≈ 20.8 µM) | 1.5 ×10³ /M/s | 512 (≈ 1330 µM) | 740 | 1.1 | 1.5 ×10⁵ /M/s | 256 (≈ 666 µM) | 180 | 30

Source: ChEMBL document CHEMBL1687833, “Genetic context and biochemical characterization of the IMP-18 metallo-beta-lactamase identified in a Pseudomonas aeruginosa isolate from the United States” (2011)
